# Source: US20200131144A1, “AMINE OR (THIO)AMIDE CONTAINING LXR MODULATORS” (Phenex-FXR GmbH, priority 2017, published 2020)
# Like-named read-outs stand apart in the source and are kept apart here.
# Experiments:
# [1] = target: T1, GST-LXRβ ligand-binding domain (Homo sapiens, UniProt P55055, INS174Q); experiment: TR-FRETβ activity assay (NCoA3 coactivator peptide recruitment); type: biochemical; details: 1 μM 24(S)-25-epoxycholesterol as prestimulating agonist; inverse agonist unless *
# T1 construct: amino acids 156-461; NP009052; made in house; host or cells: E. coli
# T1 sequence (P55055 with tags, fused parts or gaps INS174Q limits assumed): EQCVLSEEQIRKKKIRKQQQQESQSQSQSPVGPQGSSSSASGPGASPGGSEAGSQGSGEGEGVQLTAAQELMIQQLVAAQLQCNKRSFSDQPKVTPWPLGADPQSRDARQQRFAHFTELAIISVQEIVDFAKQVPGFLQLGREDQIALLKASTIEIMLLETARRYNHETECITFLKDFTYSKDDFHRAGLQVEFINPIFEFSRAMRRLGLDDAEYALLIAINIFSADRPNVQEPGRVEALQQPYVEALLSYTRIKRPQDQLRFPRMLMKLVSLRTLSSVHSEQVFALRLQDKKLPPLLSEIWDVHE
# How it was run: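 E. coli-expressed GST-LXRβ LBD (aa 156-461, 76 nM) with biotinylated NCoA3 peptide (400 nM), anti-GST-Tb cryptate donor and streptavidin-XL665 acceptor in 240 mM KCl, BSA, 0.002% Triton X-100. Equilibrated 1 h at 4° C; TR-FRET read at 615/665 nm, triplicates.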
# [2] = Pharmacokinetics in mice after single oral dosing, blood and liver exposure by LC-MS; type: in vivo, mice (C57/bl6/J); details: single oral dose 20 mg/kg
# How it was run: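 Male C57BL/6J mice fasted ≥12 h, given a single oral dose of 20 mg/kg (n=3 per group). Sacrifice at 4, 12 or 24 h post-dose; liver and blood levels quantified by LC-MS.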
# [3] = Short term HFD mouse model: liver and plasma exposure after multiple oral dosing; type: in vivo, mice (C57BL/6J); details: C57BL/6J, HFD mice, three oral doses of 20 mg/kg each, 4 h after final dose
# Description: Short Term HFD Mouse Model:
# For this, C57BL/6J were purchased from Elevage Janvier (Rennes, France) at the age of 8 weeks. After an acclimation period of two weeks, animals were prefed on a high fat diet (HFD) (Ssniff Spezialdiäten GmbH, Germany, Surwit EF D12330 mod, Cat. No. E15771-34), with 60 kcal % from fat plus 1% (w/w) extra cholesterol (Sigma-Aldrich, St. Louis, Mo.) for 5 days. Animals were maintained on this diet during treatment with LXR modulators. The test compounds were formulated in 0.5% hydroxypropylmethylcellulose (HPMC) and administered in three doses (from 1.5 to 20 mg/kg each) by oral gavage according to the following schedule: on day one, animals received treatment in the morning and the evening (ca. 17:00), on day two animals received the final treatment in the morning after a 4 h fast and were sacrificed 4 h thereafter. Animal work was conducted according to the national guidelines for animal care in Germany.
# Multiple oral dosing of compounds from the present invention in mice lead to a high liver exposure with a favourable liver to plasma ratio. […] These genes are related to hepatic de-novo lipogenesis. A suppression of these genes will reduce liver fat (liver triglycerides).
smiles,measurement,setting,value
Cc1ccc2ccccc2c1C(=O)N(Cc1ccc(-c2cc(F)c(CO)c(S(=O)(=O)CC(=O)O)c2)cc1)Cc1ccc(C(F)(F)F)o1 [22/8],EC50,[1],1 to 10 µM
same,Kp at 4 h,"[2]; male, C57/bl6/J, mouse, liver/blood, time point 4 h, read-out: liver/blood ratio",19
same,Kp at 12 h,"[2]; male, C57/bl6/J, mouse, liver/blood, time point 12 h, read-out: liver/blood ratio",27
same,blood/plasma exposure,[2]; time point 4 h,1.3 µM
same,liver exposure,[2]; time point 4 h,23 µM
same,blood/plasma exposure,[2]; time point 12 h,0.15 µM
same,liver exposure,[2]; time point 12 h,4.1 µM
same,concentration at 4 h,"[3]; liver, read-out: liver exposure, 4 h",2820 nM
same,Kp at 4 h,"[3]; liver/plasma, read-out: liver/plasma ratio, 4 h",55.7
same,concentration at 4 h,"[3]; plasma, read-out: plasma exposure, 4 h",51 nM
